Experiments:
Cat Papillary Muscles = assay: Positive inotropic activity in isolated cat papillary muscles; details: Felis catus, control = 100 percent, average of 2 to 8 muscles, read-out: Contractility of Papillary Muscle, peak response as percent of control; for activity at 100 µM: Compound Concentration 10^-4 M; for activity at 10 µM: Compound Concentration 10^-5 M
Description: Cats of either sex were anesthetized with Metofane (1,1-difluoro-2,2-dichloroethyl methyl ether, Pittman-Moore). Their hearts were immediately removed and the papillary muscles dissected and suspended in individual organ baths. A platinum hook secured one end of the muscle to an electrode mounted in the bottom of the bath, and a silk thread attached the tendon to a Statham isometric transducer. The baths contained Krebs-Henseleit solution (36° C., bubbled with 95 percent oxygen - 5 percent carbon dioxide) of the following millimolar composition: NaCl, 118; KCl, 4.5; CaCl2, 2.5; KH2 PO4, 1.1; MgSO4, 1.2; NaHCO3, 25; and glucose, 11.
A base-line tension of 1.5 g was applied to each muscle. Square-wave pulses (5.0 msec. in duration, three times threshold voltage) delivered through the hook electrode and a second electrode positioned near the top of the muscle evoked 12 contractions/minute, which were recorded on a Grass polygraph. After the muscles had equilibrated for 60 minutes, the recorder gain was adjusted so that the pen deflected 10 mm. The test compound was introduced in a solution of normal saline in an amount to bring the final concentration of the compound to 10^-5 or 10^-4 molar. Increases in contractility were tabulated as millimeters of pen deflection in excess of the baseline value. In each experiment the maximum contractility was measured. Test results are summarized in Table I and are expressed as percent of control (control=100 percent). Values are the average of results from 2 to 8 muscles.

[1] = test system: anesthetized dog (ventricular contractility); assay: Ventricular contractility in the anesthetized dog; format: in vivo; details: Canis lupus familiaris, iv; anesthetized mongrel dogs, i.v. bolus in normal saline; by interpolation; read-out: ED50, dose required to produce a peak increase in contractility of 50%
Description: Mongrel dogs of either sex ranging in weight from 7 to 14 kg were used. Anesthesia was induced with sodium pentobarbital (30 mg/kg, i.v.) and maintained with supplemental doses as required. A positive-pressure pump was used to ventilate the dogs through an endotracheal tube (18 strokes/minute, 20 ml/kg stroke^-1), and a heating pad kept the body temperature at 37°-38° C.
Femoral arterial blood pressure was measured through a polyethylene catheter filled with heparin solution (16 units/ml) and connected to a Statham pressure transducer. A strain-gauge arch sutured to the right ventricle of the heart measured cardiac contractility. Tension on the gauge was adjusted to 50 g and the gain of the recorder (Beckman dynograph) was set so that 50 g caused a 10-mm pen deflection. Cardiac contractile tension was measured as millimeters of pen deflection or grams of tension. The test compounds were administered as an i.v. bolus (2-5 ml) in a normal saline vehicle following a 30-45 minute equilibrium period. […] The maximum effects on contractility at various dose levels were determined and plotted and the dose required to produce a 50% increase in contractility (ED50) was determined by interpolation.

[2] = test system: conscious dogs (contractility, LVdP/dt); assay: Cardiac contractility in conscious dogs; format: in vivo; details: Canis lupus familiaris, po; conscious mongrel dogs, fasted eighteen hours, administered in gelatin capsules; by interpolation; read-out: ED50, dose required to produce a 50-percent increase in contractility
Excerpt: Mongrel dogs of either sex weighing 15-36 kg were chronically instrumented to monitor peak systolic pressure, heart rate, left ventricular pressure and its first derivative, LVdP/dt at 60 mm of mercury. Under halothane-nitrous oxide anesthesia, a precalibrated Konigsberg P22 Pressure Transducer was implanted into the left ventricle through a stab wound at the apex. Following recovery from surgery, a minimum of two weeks was allowed to train the dogs to lie quietly for four-hour periods. This conditioning was necessary to obtain stable, reproducible results from day to day. Dogs were fasted eighteen hours before an experiment. Gross behavioral observations of animals were made throughout each study. Compounds or placebo (lactose) were administered in gelatin capsules. The maximum effects on contractility at various dose levels were determined and plotted and the dose required to produce a 50-percent increase in contractility (ED50) was determined by interpolation. The ED50 for the compound of Example 1 was determined to be 50 mcg/kg.

| SMILES | activity at 100 µM (Cat Papillary Muscles) [%] | activity at 10 µM (Cat Papillary Muscles) [%] | ED50 [1] [mg/kg] | ED50 [2] [mg/kg] |
| --- | --- | --- | --- | --- |
| O=C1CCC(c2ccc3c(c2)C2(CCCC2)C(=O)N3)=NN1 [Example 2, 5'-(1,4,5,6-tetrahydro-6-oxo-3-pyridazinyl)-spiro[cyclopentane-1,3'-[3H]indol]-2'(1'H)-one] | 134 | 132 | 0.07 | – |
| O=C1CCC(c2ccc3c(c2)C2(CC2)C(=O)N3)=NN1 [Example 1, 5'-(1,4,5,6-tetrahydro-6-oxo-3-pyridazinyl)-spiro[cyclopropane-1,3'-[3H]indol]-2'(1'H)-one] | – | – | 0.0019 | 0.05 |
| O=C1CCC(c2ccc3c(c2)C2(CCC2)C(=O)N3)=NN1 [Example 3, 5'-(1,4,5,6-tetrahydro-6-oxo-3-pyridazinyl)-spiro[cyclobutane-1,3'-[3H]indol]-2'(1'H)-one] | 132 | 138 | 0.025 | – |

Source: patent publication US4617302A, “Inotropic agents” (Eli Lilly and Company, priority 1984, dated 1986)
